Like-named read-outs stand apart in the source and are kept apart here.
What was measured:
[1] = system: CAPAN1; experiment: Activity in Capan1 cells (ME1 responder line); assay type: cell-based; conditions: Homo sapiens
Protocol: (§1) Compound 1-4 were tested (Table 1) for inhibition of ME1. […] Capan1 is an ME1 responder line. H23 is an ME1 non-responder line.
(§2) Compound 5-7 were tested (Table 2) for inhibition of ME1. […] Capan1 is an ME1 responder line. H23 is an ME1 non-responder line.

[2] = system: H23; experiment: Activity in H23 cells (ME1 non-responder line); assay type: cell-based; conditions: Homo sapiens
Protocol: as §1, §2

[3] = Permeability pH 6.5; assay type: in vitro ADME; conditions: PAMPA
[4] = CAPAN-1, Table 2, read-out: CAPAN1 IC50/EC50
[5] = NCI-H23, Table 2, read-out: H23 IC50/EC50
[6] = CAPAN-1, Table 1, read-out: CAPAN1 IC50/EC50
[7] = NCI-H23, Table 1, read-out: H23 IC50/EC50

Row | SMILES | EC50 [1, 4] | EC50 [2, 5] | Papp ([3]; Table 2) | EC50 [1, 6] | EC50 [2, 7] | Papp ([3]; Table 1)
1 | Cc1cc(=O)c(O)cn1CCCc1ccc(Cl)cc1 [Compound 6] | 0.78 µM | 1.7 µM | 18.1 ×10⁻⁶ cm/s |  |  | 
2 | Cc1cc(=O)c(O)c(CN2CC=C(c3ccc(F)cc3)CC2)n1C [Compound 7] | 26.6 µM | 5.7 µM |  |  |  | 
3 | CC1CCN(c2ccc3nnc(-c4cccc(CN(C)C)c4)n3n2)CC1 [Compound 1] |  |  |  | 16.1 µM | 8.1 µM | 26.5 ×10⁻⁶ cm/s
4 | Cc1nn(-c2ccc(Cl)cc2)c2ncc(C(=O)NC3CCN(C)CC3)cc12 [Compound 4] |  |  |  | 1.8 µM |  | > 30 ×10⁻⁶ cm/s
5 | Cc1cc(=O)c(O)cn1CCN1CCCc2ccccc21 [Compound 5] | 2.4 µM | 8.6 µM | 15.1 ×10⁻⁶ cm/s |  |  | 
6 | CC1CCN(c2nc3c(c(N4CCc5n[nH]cc5C4)n2)CS(=O)(=O)C3)CC1 [Compound 3] |  |  |  | 26.6 µM | 4.8 µM | > 30 ×10⁻⁶ cm/s
7 | CCN1CCC(C(=O)Nc2cccc(-c3nnc4ccc(N5CCC(C)CC5)nn34)c2)CC1 [Compound 2] |  |  |  | 3.1 µM | 8.6 µM | < 0.3 ×10⁻⁶ cm/s
